# Assay: Solubility properties of the compounds (Table 1)
# Type: physicochemical
# Conditions: qualitative; solvents named in the cell
# Source text: In Tabelle 1 sind die erfindungsgemäßen Verbindungen bezüglich ihrer Farbe/Konsistenz und bezüglich ihrer Löslichkeitseigenschaften zusammengestellt.
row,Molecule,Löslichkeitseigenschaften
1,"1,1'-Bis(diphenylphosphino)cobalticinium Tetrafluoroborat [Beispiel 1]","löslich in Methylenchlorid, Nitro-methan, Methanol und Aceton"
2,"1,1'-Bis(diphenylphosphino)cobalticinium Tosylat [Beispiel 4]","löslich in Methylenchlorid, Methanol, Aceton, Nitromethan"
3,"1,1'-Bis(diphenylphosphino)cobalticinium Trifluoracetat [Beispiel 6]","löslich in Methylenchlorid, Aceton, Methanol, Nitromethan"
4,"1,1'-Bis(diphenylphosphinoindenyl)-cobalticinium-Tetrafluoroborat [Beispiel 8]",löslich in Methylenchlorid
5,"C1=CC(P(c2ccccc2)c2ccccc2)C=C1.[Co+2].[F][Sb-]([F])([F])([F])([F])[F].c1ccc(P(c2ccccc2)[c-]2cccc2)cc1 [Beispiel 2, 1,1'-Bis(diphenylphosphino)cobalticinium Hexafluoroantimonat]","löslich in Methylenchlorid, Nitromethan, Methan und Aceton"
6,"C1=CC(P(c2ccccc2)c2ccccc2)C=C1.O=[N+]([O-])[O-].[Co+2].c1ccc(P(c2ccccc2)[c-]2cccc2)cc1 [Beispiel 3, 1,1'-Bis (diphenylphosphino)cobalticinium Nitrat]",löslich in warmem Wasser
7,"C1=CC(P(c2ccccc2)c2ccccc2)C=C1.O=S(=O)([O-])C(F)(F)F.[Co+2].c1ccc(P(c2ccccc2)[c-]2cccc2)cc1 [Beispiel 5, 1,1'-Bis(diphenylphosphino)cobalticinium Triflat]","löslich in Methylenchlorid, Aceton, Nitromethan, Methanol"
8,"C1=CC(P(c2ccccc2)c2ccccc2)C=C1.[Co+2].c1ccc(P(c2ccccc2)[c-]2cccc2)cc1.c1ccc([B-](c2ccccc2)(c2ccccc2)c2ccccc2)cc1 [Beispiel 7, 1,1'-Bis(diphenylphosphino)cobalticinium Tetraphenylborat]",löslich in Methylenchlorid

# Same assay, conditions: water; in contrast to the other compounds of formula I and the known hexafluorophosphate
row,Molecule,Löslichkeit in Wasser
1,"C1=CC(P(c2ccccc2)c2ccccc2)C=C1.O=[N+]([O-])[O-].[Co+2].c1ccc(P(c2ccccc2)[c-]2cccc2)cc1 [Beispiel 3, 1,1'-Bis (diphenylphosphino)cobalticinium Nitrat]",gute Löslichkeit in Wasser

# — patent publication EP1019422B1, “PHOSPHINE-SUBSTITUTED COBALTICINIUM SALTS, PRODUCTION THEREOF, AND USE OF THE SAME AS CONSTITUENTS OF CATALYSTS” (Celanese Chemicals Europe GmbH, priority 1997, dated 1999)
